Measured values taken from patent US10913727B2, “Modulators of the integrated stress pathway” (Calico Life Sciences LLC, priority 2016, dated 2021).

Test system: HEK293T cells carrying the ATF4 luciferase reporter
Test: ATF4-Luc assay, in vitro model of Vanishing Cell White Matter Disease (VWMD)
Format: cell-based
Details: Homo sapiens, HEK-293T, 1 μg/mL tunicamycin, 7 hours, One Glo luminescence
Method in brief: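 Stable HEK293T line with human ATF4 5′-UTR–firefly luciferase reporter treated with 1 μg/mL tunicamycin plus 200 nM compound for 7 h. Luminescence read; EC50 derived.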

| SMILES | EC50 |
| --- | --- |
| O=C(COc1ccc(Cl)c(F)c1)NC12CCC(NC(=O)c3cnc(C4CC4)cn3)(CC1)C[C@@H]2O [Compound 653, N-{(3S)-4-[2-(4-chloro-3-fluorophenoxy)acetamido]-3-hydroxybicyclo[2.2.2]octan-1-yl}-5-cyclopropylpyrazine-2-carboxamide] | 250 to 1000 nM |
| O=C(COc1ccc(Cl)c(F)c1)NC12CC(NC(=O)c3ccc(OCCO)nc3)(C1)C2 [Compound 161, N-{3-[2-(4-chloro-3-fluorophenoxy)acetamido]bicyclo[1.1.1]pentan-1-yl}-6-(2-hydroxyethoxy)pyridine-3-carboxamide] | 1000 to 2000 nM |
| O=C(COc1ccc(Cl)c(F)c1)NC12CCC(NC(=O)c3cncs3)(CC1)C(O)C2 (stereo not drawn) [Compound 213, N-{4-[2-(4-chloro-3-fluorophenoxy)acetamido]-2-hydroxybicyclo[2.2.2]octan-1-yl}-1,3-thiazole-5-carboxamide] | 250 to 1000 nM |
| O=C(COc1ccc(Cl)c(F)c1)NC12CC(NC(=O)c3cnc(O)[nH]3)(C1)C2 [Compound 812, N-{3-[2-(4-chloro-3-fluorophenoxy)acetamido]bicyclo[1.1.1]pentan-1-yl}-2-hydroxy-1H-imidazole-5-carboxamide] | 1000 to 2000 nM |
| O=C(COc1ccc(Cl)c(F)c1)NC12CC(NC(=O)c3ccc(F)cn3)(C1)C2 [Compound 262, N-{3-[2-(4-chloro-3-fluorophenoxy)acetamido]bicyclo[1.1.1]pentan-1-yl}-5-fluoropyridine-2-carboxamide] | 50 to 250 nM |
| O=C(COc1ccc(Cl)c(F)c1)NC12CC(NC(=O)c3cncs3)(C1)C2 [Compound 309, N-{3-[2-(4-chloro-3-fluorophenoxy)acetamido]bicyclo[1.1.1]pentan-1-yl}-1,3-thiazole-5-carboxamide] | 250 to 1000 nM |
| O=C(COc1ccc(Cl)c(F)c1)NC12CC(NC(=O)c3cc4ncccn4n3)(C1)C2 [Compound 122, N-{3-[2-(4-chloro-3-fluorophenoxy)acetamido]bicyclo[1.1.1]pentan-1-yl}pyrazolo[1,5-a]pyrimidine-2-carboxamide] | 1000 to 2000 nM |
| O=C(COc1ccc(Cl)c(F)c1)NC12CCC(NC(=O)c3cncs3)(CC1)CC2O (stereo not drawn) [Compound 593, N-{4-[2-(4-chloro-3-fluorophenoxy)acetamido]-3-hydroxybicyclo[2.2.2]octan-1-yl}-1,3-thiazole-5-carboxamide] | 50 to 250 nM |
| Cc1cnc(C(=O)NC23CCC(NC(=O)COc4ccc(Cl)c(Cl)c4)(CC2)[C@@H](O)C3)cn1 [Compound 735, N-{(3S)-4-[2-(3,4-dichlorophenoxy)acetamido]-3-hydroxybicyclo[2.2.2]octan-1-yl}-5-methylpyrazine-2-carboxamide] | < 50 nM |
| COCC(=O)Nc1ccccc1C(=O)NC12CC(NC(=O)COc3ccc(Cl)c(F)c3)(C1)C2 [Compound 887, N-{3-[2-(4-chloro-3-fluorophenoxy)acetamido]bicyclo[1.1.1]pentan-1-yl}-2-(2-methoxyacetamido)benzamide] | 250 to 1000 nM |
| O=C(COc1ccc(Cl)c(F)c1)NC12CC(NC(=O)c3ccccc3-n3cccn3)(C1)C2 [Compound 839, N-{3-[2-(4-chloro-3-fluorophenoxy)acetamido]bicyclo[1.1.1]pentan-1-yl}-2-(1H-pyrazol-1-yl)benzamide] | > 2000 nM |
| O=C(COc1ccc(Cl)c(F)c1)NC12CCC(Nc3nccn4cnnc34)(CC1)[C@H](O)C2 [Compound 464, 2-(4-chloro-3-fluorophenoxy)-N-{(3R)-3-hydroxy-4-[([1,2,4]triazolo[4,3-a]pyrazin-8-yl)amino]bicyclo[2.2.2]octan-1-yl}acetamide] | > 2000 nM |
| O=C(COc1ccc(Cl)c(F)c1)NC12CC(NC(=O)c3cc(-c4ccc(Cl)cc4)no3)(C1)C2 [Compound 392, N-{3-[2-(4-chloro-3-fluorophenoxy)acetamido]bicyclo[1.1.1]pentan-1-yl}-3-(4-chlorophenyl)-1,2-oxazole-5-carboxamide] | < 50 nM |
| CC(C)c1nc(C(=O)NC23CC(NC(=O)COc4ccc(Cl)c(F)c4)(C2)C3)co1 [Compound 245, N-{3-[2-(4-chloro-3-fluorophenoxy)acetamido]bicyclo[1.1.1]pentan-1-yl}-2-(propan-2-yl)-1,3-oxazole-4-carboxamide] | 250 to 1000 nM |
| O=C(COc1ccc(Cl)c(F)c1)NC12CC(NC(=O)c3ncc(Cl)cc3F)(C1)C2 [Compound 770, 5-chloro-N-{3-[2-(4-chloro-3-fluorophenoxy)acetamido]bicyclo[1.1.1]pentan-1-yl}-3-fluoropyridine-2-carboxamide] | 1000 to 2000 nM |
| Cc1noc(C)c1C(=O)NC12CC(NC(=O)COc3ccc(Cl)c(F)c3)(C1)C2 [Compound 312, N-{3-[2-(4-chloro-3-fluorophenoxy)acetamido]bicyclo[1.1.1]pentan-1-yl}-3,5-dimethyl-1,2-oxazole-4-carboxamide] | > 2000 nM |
| NS(=O)(=O)c1ccc(C(=O)NC23CC(NC(=O)COc4ccc(Cl)c(F)c4)(C2)C3)cn1 [Compound 325, N-{3-[2-(4-chloro-3-fluorophenoxy)acetamido]bicyclo[1.1.1]pentan-1-yl}-6-sulfamoylpyridine-3-carboxamide] | > 2000 nM |

| SMILES | EC50 |
| --- | --- |
| COc1ncnc(OC)c1C(=O)NC12CC(NC(=O)COc3ccc(Cl)c(F)c3)(C1)C2 [Compound 118, N-{3-[2-(4-chloro-3-fluorophenoxy)acetamido]bicyclo[1.1.1]pentan-1-yl}-4,6-dimethoxypyrimidine-5-carboxamide] | > 2000 nM |
| O=C(COc1ccc(Cl)c(F)c1)NC12CCC(NC(=O)c3cnc(C(F)(F)F)cn3)(CC1)C[C@@H]2O [Compound 652, N-{(3S)-4-[2-(4-chloro-3-fluorophenoxy)acetamido]-3-hydroxybicyclo[2.2.2]octan-1-yl}-5-(trifluoromethyl)pyrazine-2-carboxamide] | < 50 nM |
| O=C(COc1ccc(Cl)c(F)c1)NC12CC(NC(=O)c3cnc(C(F)F)s3)(C1)C2 [Compound 443, N-{3-[2-(4-chloro-3-fluorophenoxy)acetamido]bicyclo[1.1.1]pentan-1-yl}-2-(difluoromethyl)-1,3-thiazole-5-carboxamide] | < 50 nM |
| Cc1cc2c(NC34CC(NC(=O)COc5ccc(OC(F)F)cc5)(C3)C4)nccn2n1 [Compound 438, 2-[4-(difluoromethoxy)phenoxy]-N-{3-[(2-methylpyrazolo[1,5-a]pyrazin-4-yl)amino]bicyclo[1.1.1]pentan-1-yl}acetamide] | 250 to 1000 nM |
| Cn1cc(Cl)c(C(=O)NC23CC(NC(=O)COc4ccc(Cl)c(F)c4)(C2)C3)n1 [Compound 871, 4-chloro-N-{3-[2-(4-chloro-3-fluorophenoxy)acetamido]bicyclo[1.1.1]pentan-1-yl}-1-methyl-1H-pyrazole-3-carboxamide] | 250 to 1000 nM |
| O=C(COc1ccc(Cl)c(F)c1)NC12CCC(NC(=O)c3ccccn3)(CC1)[C@@H](O)C2 [Compound 588, N-{(2S)-4-[2-(4-chloro-3-fluorophenoxy)acetamido]-2-hydroxybicyclo[2.2.2]octan-1-yl}pyridine-2-carboxamide] | < 50 nM |
| Cc1occc1C(=O)NC12CC(NC(=O)COc3ccc(Cl)c(F)c3)(C1)C2 [Compound 556, N-{3-[2-(4-chloro-3-fluorophenoxy)acetamido]bicyclo[1.1.1]pentan-1-yl}-2-methylfuran-3-carboxamide] | 1000 to 2000 nM |
| O=C(COc1ccc(Cl)c(F)c1)NC12CCC(NC(=O)c3ccc(OC(F)(F)F)nc3)(CC1)CC2O (stereo not drawn) [Compound 451, N-{4-[2-(4-chloro-3-fluorophenoxy)acetamido]-3-hydroxybicyclo[2.2.2]octan-1-yl}-6-(trifluoromethoxy)pyridine-3-carboxamide] | < 50 nM |
| CCCOc1ccc(C(=O)NC23CC(NC(=O)COc4ccc(Cl)c(F)c4)(C2)C3)cc1 [Compound 316, N-{3-[2-(4-chloro-3-fluorophenoxy)acetamido]bicyclo[1.1.1]pentan-1-yl}-4-propoxybenzamide] | 50 to 250 nM |
| CC(C)Oc1ccc(C(=O)NC23CCC(NC(=O)COc4ccc(Cl)c(F)c4)(CC2)C(O)C3)nc1 (stereo not drawn) [Compound 912, N-{4-[2-(4-chloro-3-fluorophenoxy)acetamido]-3-hydroxybicyclo[2.2.2]octan-1-yl}-5-[(propan-2-yl)oxy]pyridine-2-carboxamide] | < 50 nM |
| O=C(COc1ccc(Cl)c(F)c1)NC12CC(NC(=O)c3noc4ccccc34)(C1)C2 [Compound 346, N-{3-[2-(4-chloro-3-fluorophenoxy)acetamido]bicyclo[1.1.1]pentan-1-yl}-1,2-benzoxazole-3-carboxamide] | 250 to 1000 nM |
| CSc1ccccc1C(=O)NC12CC(NC(=O)COc3ccc(Cl)c(F)c3)(C1)C2 [Compound 866, N-{3-[2-(4-chloro-3-fluorophenoxy)acetamido]bicyclo[1.1.1]pentan-1-yl}-2-(methylsulfanyl)benzamide] | > 2000 nM |
| CCn1cc(C(=O)NC23CC(NC(=O)COc4ccc(Cl)c(F)c4)(C2)C3)c(C)n1 [Compound 825, N-{3-[2-(4-chloro-3-fluorophenoxy)acetamido]bicyclo[1.1.1]pentan-1-yl}-1-ethyl-3-methyl-1H-pyrazole-4-carboxamide] | 250 to 1000 nM |
| COCc1ccc(C(=O)NC23CC(NC(=O)COc4ccc(Cl)c(F)c4)(C2)C3)cc1 [Compound 552, N-{3-[2-(4-chloro-3-fluorophenoxy)acetamido]bicyclo[1.1.1]pentan-1-yl}-4-(methoxymethyl)benzamide] | 50 to 250 nM |
| O=C(COc1ccc(Cl)c(F)c1)NC12CC(NC(=O)c3cc(C(F)(F)F)no3)(C1)C2 [Compound 380, N-{3-[2-(4-chloro-3-fluorophenoxy)acetamido]bicyclo[1.1.1]pentan-1-yl}-3-(trifluoromethyl)-1,2-oxazole-5-carboxamide] | 250 to 1000 nM |
| Cn1nc(C(=O)NC23CC(NC(=O)COc4ccc(Cl)c(F)c4)(C2)C3)cc1C(F)(F)F [Compound 789, N-{3-[2-(4-chloro-3-fluorophenoxy)acetamido]bicyclo[1.1.1]pentan-1-yl}-1-methyl-5-(trifluoromethyl)-1H-pyrazole-3-carboxamide] | 50 to 250 nM |
